# Experimental data from ChEMBL document CHEMBL1151757, “Synthesis, radiosynthesis, and biological evaluation of fluorine-18-labeled 2beta-carbo(fluoroalkoxy)-3beta-(3'-((Z)-2-haloethenyl)phenyl)nortropanes: candidate radioligands for in vivo imaging of the serotonin transporter with positron emission tomography” (J Med Chem, 2008).
# Assays:
# [1] = Drug uptake in anesthetized cynomolgus monkey brain occipital lobe after 205 mins postinjection; assay type: ADME, organism-based, Macaca fascicularis; conditions: in vivo
# Midbrain [2] = test: Drug uptake in anesthetized cynomolgus monkey brain midbrain after 95 mins postinjection; assay type: ADME, organism-based, Macaca fascicularis; parameters: unit not given here; conditions: in vivo
# [3] = Drug uptake in anesthetized cynomolgus monkey brain occipital lobe after 27.5 mins postinjection; assay type: ADME, organism-based, Macaca fascicularis; conditions: in vivo
# [4] = Drug uptake in anesthetized cynomolgus monkey brain frontal lobe after 22.5 mins postinjection; assay type: ADME, organism-based, Macaca fascicularis; conditions: in vivo, 0.375 h
# Medulla [5] = test: Drug uptake in anesthetized cynomolgus monkey brain medulla after 55 mins postinjection; assay type: ADME, organism-based, Macaca fascicularis; conditions: in vivo
# [6] = Ratio of drug uptake in putamen to cerebellum in anesthetized cynomolgus monkey after 0.5 mins postinjection; assay type: ADME, organism-based, Macaca fascicularis; conditions: in vivo
# [7] = Drug uptake in anesthetized cynomolgus monkey brain cerebellum after 75 mins postinjection; assay type: ADME, organism-based, Macaca fascicularis; conditions: in vivo, 1.25 h
# [8] = Drug uptake in anesthetized cynomolgus monkey brain occipital lobe after 145 mins postinjection; assay type: ADME, organism-based, Macaca fascicularis; conditions: in vivo
# Pons [9] = test: Drug uptake in anesthetized cynomolgus monkey brain pons after 45 mins postinjection; assay type: ADME, organism-based, Macaca fascicularis; conditions: in vivo, 0.75 h
# [10] = Ratio of drug uptake in occipital lobe to cerebellum in anesthetized cynomolgus monkey after 4.5 mins postinjection; assay type: ADME, organism-based, Macaca fascicularis; conditions: in vivo, 0.075 h
# [11] = Drug uptake in anesthetized cynomolgus monkey brain frontal lobe after 115 mins postinjection; assay type: ADME, organism-based, Macaca fascicularis; conditions: in vivo
# [12] = Drug uptake in anesthetized cynomolgus monkey brain frontal lobe after 145 mins postinjection; assay type: ADME, organism-based, Macaca fascicularis; conditions: in vivo
# Caudate [13] = test: Drug uptake in anesthetized cynomolgus monkey brain caudate after 4.5 mins postinjection; assay type: ADME, organism-based, Macaca fascicularis, Caudate nucleus; conditions: in vivo, 0.075 h
# [14] = Drug uptake in anesthetized cynomolgus monkey brain cerebellum after 18.5 mins postinjection; assay type: ADME, organism-based, Macaca fascicularis; conditions: in vivo
# [15] = Drug uptake in anesthetized cynomolgus monkey brain frontal lobe after 195 mins postinjection; assay type: ADME, organism-based, Macaca fascicularis; conditions: in vivo, 3.25 h
# Thalamus [16] = test: Drug uptake in anesthetized cynomolgus monkey brain thalamus after 235 mins postinjection; assay type: ADME, organism-based, Macaca fascicularis; parameters: unit not given here; conditions: in vivo
# Thalamus [17] = test: Drug uptake in anesthetized cynomolgus monkey brain thalamus after 22.5 mins postinjection; assay type: ADME, organism-based, Macaca fascicularis; parameters: unit not given here; conditions: in vivo, 0.375 h
# [18] = Drug uptake in anesthetized cynomolgus monkey brain cerebellum after 85 mins postinjection; assay type: ADME, organism-based, Macaca fascicularis; conditions: in vivo
# Putamen [19] = test: Drug uptake in anesthetized cynomolgus monkey brain putamen after 1.5 mins postinjection; assay type: ADME, organism-based, Macaca fascicularis; conditions: in vivo, 0.025 h
# Caudate [20] = test: Drug uptake in anesthetized cynomolgus monkey brain caudate after 27.5 mins postinjection; assay type: ADME, organism-based, Macaca fascicularis, Caudate nucleus; conditions: in vivo
# Midbrain [21] = test: Drug uptake in anesthetized cynomolgus monkey brain midbrain after 135 mins postinjection; assay type: ADME, organism-based, Macaca fascicularis; conditions: in vivo, 2.25 h
# Pons [22] = test: Drug uptake in anesthetized cynomolgus monkey brain pons after 135 mins postinjection; assay type: ADME, organism-based, Macaca fascicularis; conditions: in vivo, 2.25 h
# Midbrain [23] = test: Drug uptake in anesthetized cynomolgus monkey brain midbrain after 15.5 mins postinjection; assay type: ADME, organism-based, Macaca fascicularis; parameters: unit not given here; conditions: in vivo
# Midbrain [24] = test: Drug uptake in anesthetized cynomolgus monkey brain midbrain after 215 mins postinjection; assay type: ADME, organism-based, Macaca fascicularis; conditions: in vivo
# Thalamus [25] = test: Drug uptake in anesthetized cynomolgus monkey brain thalamus after 145 mins postinjection; assay type: ADME, organism-based, Macaca fascicularis; parameters: unit not given here; conditions: in vivo
# Putamen [26] = test: Drug uptake in anesthetized cynomolgus monkey brain putamen after 12.5 mins postinjection; assay type: ADME, organism-based, Macaca fascicularis; parameters: unit not given here; conditions: in vivo
# [27] = Drug uptake in anesthetized cynomolgus monkey brain frontal lobe after 45 mins postinjection; assay type: ADME, organism-based, Macaca fascicularis; conditions: in vivo, 0.75 h
# Midbrain [28] = test: Drug uptake in anesthetized cynomolgus monkey brain midbrain after 105 mins postinjection; assay type: ADME, organism-based, Macaca fascicularis; parameters: unit not given here; conditions: in vivo, 1.75 h
# [29] = Ratio of drug uptake in frontal lobe to cerebellum in anesthetized cynomolgus monkey after 125 mins postinjection; assay type: ADME, organism-based, Macaca fascicularis; conditions: in vivo
# [30] = Ratio of drug uptake in midbrain to cerebellum in anesthetized cynomolgus monkey after 85 mins postinjection; assay type: ADME, organism-based, Macaca fascicularis; conditions: in vivo
# Thalamus [31] = test: Drug uptake in anesthetized cynomolgus monkey brain thalamus after 75 mins postinjection; assay type: ADME, organism-based, Macaca fascicularis; parameters: unit not given here; conditions: in vivo, 1.25 h
# [32] = Ratio of drug uptake in frontal lobe to cerebellum in anesthetized cynomolgus monkey after 75 mins postinjection; assay type: ADME, organism-based, Macaca fascicularis; conditions: in vivo, 1.25 h
# [33] = Drug uptake in anesthetized cynomolgus monkey brain occipital lobe after 55 mins postinjection; assay type: ADME, organism-based, Macaca fascicularis; conditions: in vivo
# [34] = Ratio of drug uptake in caudate to cerebellum in anesthetized cynomolgus monkey after 135 mins postinjection; assay type: ADME, organism-based, Macaca fascicularis; conditions: in vivo, 2.25 h
# Pons [35] = test: Drug uptake in anesthetized cynomolgus monkey brain pons after 125 mins postinjection; assay type: ADME, organism-based, Macaca fascicularis; conditions: in vivo
# [36] = Drug uptake in anesthetized cynomolgus monkey brain frontal lobe after 9.5 mins postinjection; assay type: ADME, organism-based, Macaca fascicularis; conditions: in vivo
# Putamen [37] = test: Drug uptake in anesthetized cynomolgus monkey brain putamen after 75 mins postinjection; assay type: ADME, organism-based, Macaca fascicularis; parameters: unit not given here; conditions: in vivo, 1.25 h
# [38] = Ratio of drug uptake in pons to cerebellum in anesthetized cynomolgus monkey after 1.5 mins postinjection; assay type: ADME, organism-based, Macaca fascicularis; conditions: in vivo, 0.025 h
# Pons [39] = test: Drug uptake in anesthetized cynomolgus monkey brain pons after 235 mins postinjection; assay type: ADME, organism-based, Macaca fascicularis; conditions: in vivo
# [40] = Drug uptake in anesthetized cynomolgus monkey brain cerebellum after 2.5 mins postinjection; assay type: ADME, organism-based, Macaca fascicularis; conditions: in vivo
# Putamen [41] = test: Drug uptake in anesthetized cynomolgus monkey brain putamen after 175 mins postinjection; assay type: ADME, organism-based, Macaca fascicularis; conditions: in vivo
# [42] = Drug uptake in anesthetized cynomolgus monkey brain cerebellum after 65 mins postinjection; assay type: ADME, organism-based, Macaca fascicularis; conditions: in vivo
# Caudate [43] = test: Drug uptake in anesthetized cynomolgus monkey brain caudate after 125 mins postinjection; assay type: ADME, organism-based, Macaca fascicularis, Caudate nucleus; conditions: in vivo
# [44] = Drug uptake in anesthetized cynomolgus monkey brain cerebellum after 175 mins postinjection; assay type: ADME, organism-based, Macaca fascicularis; conditions: in vivo
# Putamen [45] = test: Drug uptake in anesthetized cynomolgus monkey brain putamen after 65 mins postinjection; assay type: ADME, organism-based, Macaca fascicularis; parameters: unit not given here; conditions: in vivo
# Putamen [46] = test: Drug uptake in anesthetized cynomolgus monkey brain putamen after 2.5 mins postinjection; assay type: ADME, organism-based, Macaca fascicularis; conditions: in vivo
# [47] = Drug uptake in anesthetized cynomolgus monkey brain cerebellum after 4.5 mins postinjection; assay type: ADME, organism-based, Macaca fascicularis; conditions: in vivo, 0.075 h
# [48] = Ratio of drug uptake in medulla to cerebellum in anesthetized cynomolgus monkey after 185 mins postinjection; assay type: ADME, organism-based, Macaca fascicularis; conditions: in vivo
# [49] = Ratio of drug uptake in medulla to cerebellum in anesthetized cynomolgus monkey after 155 mins postinjection; assay type: ADME, organism-based, Macaca fascicularis; conditions: in vivo
# [50] = Drug uptake in anesthetized cynomolgus monkey brain frontal lobe after 15.5 mins postinjection; assay type: ADME, organism-based, Macaca fascicularis; conditions: in vivo
# [51] = Ratio of drug uptake in frontal lobe to cerebellum in anesthetized cynomolgus monkey after 3.5 mins postinjection; assay type: ADME, organism-based, Macaca fascicularis; conditions: in vivo
# [52] = Ratio of drug uptake in thalamus to cerebellum in anesthetized cynomolgus monkey after 9.5 mins postinjection; assay type: ADME, organism-based, Macaca fascicularis; conditions: in vivo
# Caudate [53] = test: Drug uptake in anesthetized cynomolgus monkey brain caudate after 35 mins postinjection; assay type: ADME, organism-based, Macaca fascicularis, Caudate nucleus; conditions: in vivo
# [54] = Ratio of drug uptake in frontal lobe to cerebellum in anesthetized cynomolgus monkey after 145 mins postinjection; assay type: ADME, organism-based, Macaca fascicularis; conditions: in vivo
# Medulla [55] = test: Drug uptake in anesthetized cynomolgus monkey brain medulla after 145 mins postinjection; assay type: ADME, organism-based, Macaca fascicularis; conditions: in vivo
# [56] = Drug uptake in anesthetized cynomolgus monkey brain occipital lobe after 215 mins postinjection; assay type: ADME, organism-based, Macaca fascicularis; conditions: in vivo
# Pons [57] = test: Drug uptake in anesthetized cynomolgus monkey brain pons after 75 mins postinjection; assay type: ADME, organism-based, Macaca fascicularis; conditions: in vivo, 1.25 h
# [58] = Drug uptake in anesthetized cynomolgus monkey brain cerebellum after 165 mins postinjection; assay type: ADME, organism-based, Macaca fascicularis; conditions: in vivo, 2.75 h
# Midbrain [59] = test: Drug uptake in anesthetized cynomolgus monkey brain midbrain after 35 mins postinjection; assay type: ADME, organism-based, Macaca fascicularis; parameters: unit not given here; conditions: in vivo
# [60] = Ratio of drug uptake in medulla to cerebellum in anesthetized cynomolgus monkey after 12.5 mins postinjection; assay type: ADME, organism-based, Macaca fascicularis; conditions: in vivo
# [61] = Drug uptake in anesthetized cynomolgus monkey brain occipital lobe after 18.5 mins postinjection; assay type: ADME, organism-based, Macaca fascicularis; conditions: in vivo
# Putamen [62] = test: Drug uptake in anesthetized cynomolgus monkey brain putamen after 225 mins postinjection; assay type: ADME, organism-based, Macaca fascicularis; conditions: in vivo, 3.75 h
# [63] = Drug uptake in anesthetized cynomolgus monkey brain occipital lobe after 135 mins postinjection; assay type: ADME, organism-based, Macaca fascicularis; conditions: in vivo, 2.25 h
# Caudate [64] = test: Drug uptake in anesthetized cynomolgus monkey brain caudate after 75 mins postinjection; assay type: ADME, organism-based, Macaca fascicularis, Caudate nucleus; conditions: in vivo, 1.25 h
# [65] = Ratio of drug uptake in putamen to cerebellum in anesthetized cynomolgus monkey after 155 mins postinjection; assay type: ADME, organism-based, Macaca fascicularis; conditions: in vivo
# [66] = Ratio of drug uptake in medulla to cerebellum in anesthetized cynomolgus monkey after 85 mins postinjection; assay type: ADME, organism-based, Macaca fascicularis; conditions: in vivo
# [67] = Octanol-water partition coefficient, log P at pH 7.4 by shake-flask method; assay type: physicochemical
smiles,measurement,setting,value
O=C(OCC[18F])C1C2CCC(CC1c1cccc(/C=C\Br)c1)N2 (configuration not stated),Drug uptake,[1],2.28
same,Drug uptake,Midbrain [2],4.91
same,Drug uptake,[3],3.28
same,Drug uptake,[4],2.54
same,Drug uptake,Medulla [5],4.82
same,Ratio,[6],1.3
same,Drug uptake,[7],3.3
same,Drug uptake,[8],2.74
same,Drug uptake,Pons [9],4.45
same,Ratio,[10],0.7
same,Drug uptake,[11],2.69
same,Drug uptake,[12],2.52
same,Drug uptake,Caudate [13],1.12
same,Drug uptake,[14],3.59
same,Drug uptake,[15],2.18
same,Drug uptake,Thalamus [16],2.88
same,Drug uptake,Thalamus [17],3.43
same,Drug uptake,[18],3.17
same,Drug uptake,Putamen [19],0.06
same,Drug uptake,Caudate [20],3.3
same,Drug uptake,Midbrain [21],4.67
same,Drug uptake,Pons [22],4.26
same,Drug uptake,Midbrain [23],4.06
same,Drug uptake,Midbrain [24],3.76
same,Drug uptake,Thalamus [25],3.86
same,Drug uptake,Putamen [26],3.69
same,Drug uptake,[27],2.85
same,Drug uptake,Midbrain [28],4.87
same,Ratio,[29],1
same,Ratio,[30],1.5
same,Drug uptake,Thalamus [31],4.29
same,Ratio,[32],0.9
same,Drug uptake,[33],3.49
same,Ratio,[34],1.5
same,Drug uptake,Pons [35],4.27
same,Drug uptake,[36],2.06
same,Drug uptake,Putamen [37],5
same,Ratio,[38],1.6
same,Drug uptake,Pons [39],3.08
same,Drug uptake,[40],0.42
same,Drug uptake,Putamen [41],3.76
same,Drug uptake,[42],3.5
same,Drug uptake,Caudate [43],3.75
same,Drug uptake,[44],2.03
same,Drug uptake,Putamen [45],5.1
same,Drug uptake,Putamen [46],0.4
same,Drug uptake,[47],1.76
same,Ratio,[48],1.9
same,Ratio,[49],1.7
same,Drug uptake,[50],2.38
same,Ratio,[51],0.5
same,Ratio,[52],0.9
same,Drug uptake,Caudate [53],3.56
same,Ratio,[54],1.1
same,Drug uptake,Medulla [55],3.92
same,Drug uptake,[56],2.01
same,Drug uptake,Pons [57],4.51
same,Drug uptake,[58],2.18
same,Drug uptake,Midbrain [59],4.68
same,Ratio,[60],1.2
same,Drug uptake,[61],2.89
same,Drug uptake,Putamen [62],3
same,Drug uptake,[63],2.78
same,Drug uptake,Caudate [64],3.94
same,Ratio,[65],1.8
same,Ratio,[66],1.5
same,logD,[67],1.4
